“And” between values parts separate entries of the source, which are not always exact repeats. Identical values can stand only once. Square brackets hold non-standard residues; d marks the D form. Peptide text beside a SMILES is read from it. * marks the point of attachment. NODAGA = O=C(O)CN1CCN(CC(=O)O)CCN(C(CCC(=O)*)C(=O)O)CC1; Tic = O=C(O)[C@@H]1Cc2ccccc2CN1
Key:
[1] = test system: dopaminergic (DA) neurons; assay: 6-OHDA partial lesion rat model: rotation and DA neuron loss
[2] = molecular target: Glucocorticoid receptor (GR) (Mus musculus, UniProt P06537); assay: 18F-YJH08 biodistribution in mice; settings: 30 min post injection, PC3 renal capsule tumors
CMKLR1 = CMKLR1 (Mus musculus, UniProt P97468); assay: 64Cu-NODAGA-CG34 PET/CT in bleomycin-induced lung injury; assay type: in vivo
[3] = as above; assay type: in vivo, mouse; settings: mouse, lung, PET
aminopeptidase N (APN) = assay: kinetic parameters of probes for APN; assay type: biochemical
ccRCC lung tumors = assay: [18F]FGln PET/MRI of ccRCC lung tumors; set-up: species or system nude mice; settings: mouse, in vivo
UMRC3 cells = assay: [18F]FGln uptake in UMRC3 cells; assay type: cell-based, human
myeloperoxidase (MPO) = assay: D-mannose in transient MCAO stroke with heMAMP MRI; assay type: in vivo, C57BL/6J mice
[4] = SWIR ratiometric imaging of ICG clearance; settings: mean
[5] = molecular target: deoxycytidine kinase (dCK) (Mus musculus, UniProt P43346); assay: TRE-515 treatment of EAE mouse models of MS; assay type: in vivo
CSF1R = CSF1R (Mus musculus, UniProt P09581); assay: [18F]1 brain uptake in control and LPS-treated mice; assay type: in vivo
K+ channels = assay: first-in-human [18F]3F4AP brain PET; assay type: in vivo
IDO1 = IDO1 (Mus musculus, UniProt P28776); assay: small animal PET in B16F10 mouse models; assay type: in vivo
HER2 and EGFRvIII = assay: SNIPR-PET T cell imaging in dual xenografts; settings: in vivo
HER2 = HER2 (Homo sapiens, UniProt P04626); assay: 89Zr-trastuzumab PET in NCIN87 xenografts with metformin; assay type: in vivo, athymic nude mice
EGFR = EGFR (Homo sapiens, UniProt P00533); assay: 89Zr-panitumumab PET in A431 xenografts with metformin; assay type: in vivo, athymic nude mice; settings: acute metformin
[6] = test system: YUMM1.7 melanoma xenografts; assay: BRAF/MEK inhibition in YUMM1.7 melanoma xenografts; assay type: in vivo, mice; settings: for production of 13C-lactate from 13C-glucose: 24 h after treatment; for tumor growth vs control group: mouse, in vivo
[7] = tumor boron content by ICP-MS; assay type: in vivo, mice; settings: 3h after intraperitoneal injection
OX40 [8] = molecular target: T1, OX40 (Homo sapiens, UniProt P43489); assay: [89Zr]huOX40mAb binding to primary human T cells; assay type: cell-based
T1 sequence (P43489 29-277): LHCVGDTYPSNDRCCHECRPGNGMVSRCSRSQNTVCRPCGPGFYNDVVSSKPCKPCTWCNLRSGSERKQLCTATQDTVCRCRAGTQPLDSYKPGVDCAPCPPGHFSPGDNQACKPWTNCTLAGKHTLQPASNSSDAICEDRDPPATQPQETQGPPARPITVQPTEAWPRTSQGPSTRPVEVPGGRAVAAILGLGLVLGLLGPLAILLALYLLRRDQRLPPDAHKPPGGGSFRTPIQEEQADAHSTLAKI

OX40 [9] = molecular target: T1, OX40; assay: [89Zr]huOX40mAb binding to OX40+ HEK293 cells; assay type: cell-based
OX40 [10] = molecular target: T1, OX40; assay: [89Zr]huOX40mAb PET in HEK293 tumor mice; assay type: in vivo, NSG mice; settings: 72 hours p.i., PET ROI
Disialoganglioside GD2 = assay: Serial PET/CT of 89Zr-dinutuximab in B78 melanoma mice; assay type: in vivo, mouse
[11] = 12 μg 6-OHDA into right striatum

Chain of deoxycytidine kinase (dCK) (P43346 whole entry): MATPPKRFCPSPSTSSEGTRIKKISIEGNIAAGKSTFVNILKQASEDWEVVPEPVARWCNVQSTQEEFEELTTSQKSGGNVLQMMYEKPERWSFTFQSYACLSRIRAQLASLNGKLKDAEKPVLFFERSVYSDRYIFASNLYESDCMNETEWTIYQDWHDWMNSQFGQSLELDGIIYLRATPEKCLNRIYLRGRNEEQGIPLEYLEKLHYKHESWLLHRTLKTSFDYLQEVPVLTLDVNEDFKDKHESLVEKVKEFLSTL
Chain of CSF1R (P09581 20-977): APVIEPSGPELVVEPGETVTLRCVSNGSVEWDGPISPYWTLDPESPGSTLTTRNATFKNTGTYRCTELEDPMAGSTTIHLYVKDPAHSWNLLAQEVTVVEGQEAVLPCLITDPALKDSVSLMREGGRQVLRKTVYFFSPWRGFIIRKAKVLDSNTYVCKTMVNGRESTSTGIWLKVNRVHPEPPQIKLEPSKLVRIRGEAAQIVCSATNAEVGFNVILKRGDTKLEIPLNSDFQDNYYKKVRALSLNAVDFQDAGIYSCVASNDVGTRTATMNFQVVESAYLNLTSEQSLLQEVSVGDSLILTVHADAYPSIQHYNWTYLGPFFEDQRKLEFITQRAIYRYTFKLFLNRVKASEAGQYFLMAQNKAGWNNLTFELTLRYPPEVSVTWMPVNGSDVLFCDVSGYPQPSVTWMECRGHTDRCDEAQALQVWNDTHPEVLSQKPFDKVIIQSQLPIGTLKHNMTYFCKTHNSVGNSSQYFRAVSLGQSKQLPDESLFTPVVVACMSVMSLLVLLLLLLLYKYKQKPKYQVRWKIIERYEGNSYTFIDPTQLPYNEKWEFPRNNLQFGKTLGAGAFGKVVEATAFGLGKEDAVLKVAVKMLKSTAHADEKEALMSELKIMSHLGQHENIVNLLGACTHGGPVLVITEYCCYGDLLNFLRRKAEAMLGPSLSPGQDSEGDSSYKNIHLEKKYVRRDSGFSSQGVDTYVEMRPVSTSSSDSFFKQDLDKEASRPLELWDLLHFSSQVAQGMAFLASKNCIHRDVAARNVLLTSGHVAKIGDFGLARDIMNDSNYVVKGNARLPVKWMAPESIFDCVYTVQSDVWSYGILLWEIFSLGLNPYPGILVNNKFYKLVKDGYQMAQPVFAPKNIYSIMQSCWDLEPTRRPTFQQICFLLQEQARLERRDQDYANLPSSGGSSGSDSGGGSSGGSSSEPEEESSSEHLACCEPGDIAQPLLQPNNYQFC
Chain of IDO1 (P28776 whole entry): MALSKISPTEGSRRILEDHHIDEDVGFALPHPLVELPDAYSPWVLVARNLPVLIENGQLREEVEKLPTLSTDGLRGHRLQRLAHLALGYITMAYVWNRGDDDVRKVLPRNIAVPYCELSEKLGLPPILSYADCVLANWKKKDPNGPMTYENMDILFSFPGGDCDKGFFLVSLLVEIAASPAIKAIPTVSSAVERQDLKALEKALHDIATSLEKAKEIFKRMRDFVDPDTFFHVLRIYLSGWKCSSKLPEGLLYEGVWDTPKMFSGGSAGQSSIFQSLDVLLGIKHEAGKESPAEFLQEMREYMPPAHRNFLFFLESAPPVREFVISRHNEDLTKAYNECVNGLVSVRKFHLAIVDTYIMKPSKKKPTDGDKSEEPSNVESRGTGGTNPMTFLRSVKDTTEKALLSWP
Chain of HER2 (P04626 23-1255): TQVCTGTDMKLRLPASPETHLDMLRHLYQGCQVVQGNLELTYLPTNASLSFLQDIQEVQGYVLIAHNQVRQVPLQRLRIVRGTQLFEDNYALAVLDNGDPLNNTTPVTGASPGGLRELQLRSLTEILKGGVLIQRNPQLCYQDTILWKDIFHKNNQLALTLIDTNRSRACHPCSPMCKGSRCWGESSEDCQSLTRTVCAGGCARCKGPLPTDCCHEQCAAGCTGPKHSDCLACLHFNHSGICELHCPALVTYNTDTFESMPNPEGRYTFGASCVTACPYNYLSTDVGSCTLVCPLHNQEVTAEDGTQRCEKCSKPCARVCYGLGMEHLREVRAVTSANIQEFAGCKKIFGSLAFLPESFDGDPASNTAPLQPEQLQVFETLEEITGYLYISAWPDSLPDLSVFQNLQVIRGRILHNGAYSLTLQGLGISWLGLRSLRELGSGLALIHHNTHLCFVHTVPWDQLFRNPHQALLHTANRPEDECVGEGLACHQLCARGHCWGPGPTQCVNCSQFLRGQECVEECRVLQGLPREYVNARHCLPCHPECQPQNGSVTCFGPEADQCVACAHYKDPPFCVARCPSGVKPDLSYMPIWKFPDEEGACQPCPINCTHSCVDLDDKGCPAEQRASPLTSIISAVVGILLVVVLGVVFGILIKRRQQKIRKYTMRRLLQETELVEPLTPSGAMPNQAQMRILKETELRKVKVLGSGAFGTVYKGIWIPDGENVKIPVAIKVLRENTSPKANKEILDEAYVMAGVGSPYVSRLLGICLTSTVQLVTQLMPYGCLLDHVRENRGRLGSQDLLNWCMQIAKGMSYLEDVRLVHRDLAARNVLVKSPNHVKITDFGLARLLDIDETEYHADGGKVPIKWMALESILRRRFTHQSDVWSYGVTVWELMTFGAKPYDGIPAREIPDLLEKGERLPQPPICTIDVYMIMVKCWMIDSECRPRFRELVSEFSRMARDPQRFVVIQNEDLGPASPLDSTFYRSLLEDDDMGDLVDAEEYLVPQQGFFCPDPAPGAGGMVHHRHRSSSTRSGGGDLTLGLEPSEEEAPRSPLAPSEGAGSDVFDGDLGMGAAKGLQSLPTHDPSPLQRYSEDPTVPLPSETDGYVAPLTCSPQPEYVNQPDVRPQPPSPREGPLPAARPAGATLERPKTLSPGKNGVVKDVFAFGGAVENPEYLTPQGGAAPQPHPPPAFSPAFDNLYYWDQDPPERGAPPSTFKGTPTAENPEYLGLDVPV
Chain of CMKLR1 (P97468 whole entry): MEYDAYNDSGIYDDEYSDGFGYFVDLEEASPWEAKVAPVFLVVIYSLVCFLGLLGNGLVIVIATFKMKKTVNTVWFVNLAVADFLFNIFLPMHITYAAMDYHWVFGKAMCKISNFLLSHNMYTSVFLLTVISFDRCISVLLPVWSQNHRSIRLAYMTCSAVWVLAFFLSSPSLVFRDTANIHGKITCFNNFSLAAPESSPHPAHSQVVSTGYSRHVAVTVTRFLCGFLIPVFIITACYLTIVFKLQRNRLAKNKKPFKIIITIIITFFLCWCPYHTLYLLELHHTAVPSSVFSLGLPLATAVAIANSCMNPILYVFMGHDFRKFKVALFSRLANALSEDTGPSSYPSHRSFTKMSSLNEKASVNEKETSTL
Chain of Glucocorticoid receptor (GR) (P06537 whole entry): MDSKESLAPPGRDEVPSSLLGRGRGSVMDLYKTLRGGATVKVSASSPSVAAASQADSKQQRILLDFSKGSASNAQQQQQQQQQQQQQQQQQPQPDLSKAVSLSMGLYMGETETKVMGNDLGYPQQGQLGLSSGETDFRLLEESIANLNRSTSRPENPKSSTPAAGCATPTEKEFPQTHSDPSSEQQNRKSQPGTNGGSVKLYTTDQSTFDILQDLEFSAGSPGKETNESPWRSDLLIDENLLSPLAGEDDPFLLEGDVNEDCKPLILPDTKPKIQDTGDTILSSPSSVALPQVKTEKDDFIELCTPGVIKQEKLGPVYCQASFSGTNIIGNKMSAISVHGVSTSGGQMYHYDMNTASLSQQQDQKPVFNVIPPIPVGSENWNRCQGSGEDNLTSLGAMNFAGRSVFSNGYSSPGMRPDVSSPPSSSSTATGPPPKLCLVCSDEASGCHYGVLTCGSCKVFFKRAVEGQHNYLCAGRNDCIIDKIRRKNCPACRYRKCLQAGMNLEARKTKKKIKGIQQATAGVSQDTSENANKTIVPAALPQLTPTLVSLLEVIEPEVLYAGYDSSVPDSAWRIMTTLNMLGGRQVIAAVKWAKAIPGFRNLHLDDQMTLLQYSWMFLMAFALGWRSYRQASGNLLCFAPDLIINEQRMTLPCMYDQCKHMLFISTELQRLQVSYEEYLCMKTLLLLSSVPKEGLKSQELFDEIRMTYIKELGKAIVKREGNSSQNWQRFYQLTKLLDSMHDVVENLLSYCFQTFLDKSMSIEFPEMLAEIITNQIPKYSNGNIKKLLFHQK

Molecule: NCCc1cc(O)c(O)cc1O [6-OHDA, 6-hydroxydopamine]
- APO-induced rotations, 1st week [1, 11]: 6.4 ± 2.4 turns/ min
- APO-induced rotations, 3rd week [1, 11]: 11.3±4.3 turns/ min
- DA neurons loss in treated right striatum ([1]; [18F]D6-FP-(+)-DTBZ PET, 4th week): approximately 60%

Molecule: COc1cccc2c1-c1ccc3c(c1C(Cc1ccc([18F])cc1)O2)C(C)=CC(C)(C)N3 (stereo not drawn) [18F-YJH08]
- tumoral uptake [2]: ~ 2 % ID/g

Molecule: CC(C)C[C@H](NC(=O)[C@H](Cc1ccccc1)NC(=O)[C@@H](Cc1ccc(O)cc1)NC(=O)CCC(C(=O)O)N1CCN(CC(=O)O)CCN(CC(=O)O)CC1)C(=O)N1CCC[C@H]1C(=O)N[C@H](CO)C(=O)N[C@@H](CCC(N)=O)C(=O)N[C@@H](Cc1ccccc1)C(=O)N[C@H](C)C(=O)N1Cc2ccccc2C[C@H]1C(=O)N[C@@H](CO)C(=O)O (stereo partly drawn) [64Cu-NODAGA-CG34, metal not drawn] ({NODAGA}-[dY]FLP[dS]QF[dA][Tic]S-OH; N-terminus and C-terminus assumed)
- uptake on co-injection of excess NODAGA-CG34 (CMKLR1; 100x molar excess non-radiolabeled): near-completely blocked
- lung %ID/gmax, 1 week after bleomycin (CMKLR1; PET): 4.04±0.87 %ID/g
- tissue uptake ([3]; lung %ID/gmax, 2 weeks): 3.35 ± 0.47 %ID/g
- tissue uptake ([3]; lung %ID/gmax, 4 weeks): 1.96 ± 0.19 %ID/g
- tissue uptake ([3]; lung %ID/gmax, baseline): 1.38 ± 0.1 %ID/g
- tissue uptake ([3]; lung %ID/gmean, 1 week after bleomycin): 2.47 ± 0.67 %ID/g
- tissue uptake ([3]; lung %ID/gmean, 2 weeks): 1.83 ± 0.3 %ID/g
- tissue uptake ([3]; lung %ID/gmean, 4 weeks): 1.03 ± 0.1 %ID/g
- tissue uptake ([3]; lung %ID/gmean, baseline): 0.7 ± 0.06 %ID/g

Molecule: C[C@H](N)C(N)=O [Ala-NH2]
- Km (aminopeptidase N (APN)): 15.7 ± 4.4 mM

Molecule: O=C(Cc1cccc(OC(F)(F)F)c1)Nc1ccc(CCCCc2nnc(NC(=O)Cc3ccccn3)s2)nn1 [CB-839]
- effect on [18F]FGln retention in lung tumors (ccRCC lung tumors): did not change significantly
- effect on [18F]FGln cellular uptake (UMRC3 cells): increased

Molecule: OC[C@H]1OC(O)[C@@H](O)[C@@H](O)[C@@H]1O (stereo partly drawn) [D-mannose]
- neurological deficit scores vs PBS (myeloperoxidase (MPO); 450mg/kg i.p. daily): improved neurological deficit scores
- heMAMP MRI enhancement in the infarcted area (myeloperoxidase (MPO); day 10, p=0.0027): decreased

Molecule: CC1(C)C(/C=C/C=C/C=C/C=C2\N(CCCCS(=O)(=O)O)c3ccc4ccccc4c3C2(C)C)=[N+](CCCCS(=O)(=O)[O-])c2ccc3ccccc3c21 [ICG, indocyanine green]
- blood half-life, isoflurane ([4]; sd 0.28, n=4): 2.56 min
- blood half-life, awake ([4]; sd 0.73, n=4): 2.81 min
- liver clearance, isoflurane ([4]; sd 2.50, n=3): 18.44 min
- liver clearance, awake ([4]; sd 3.29, n=9): 18.71 min

Molecule: COc1ccc(-c2nc([C@@H](C)Sc3nc(N)cc(N)n3)c(C)s2)cc1OCCN1CCOCC1 [TRE-515]
- clinical symptoms ([5]; MOG35-55 and PLP139-151 EAE models): limited clinical symptoms
- side effects ([5]; both MS mouse models): no observable side effects
- plasma levels of deoxycytidine ([5]; mouse, in vivo): increased

Molecule: Cc1cccc(COc2ccccc2CN(CC[C@H](N)C(=O)O)Cc2ccccc2OCc2cccc(C)c2)c1 [V-9302]
- reduction of [18F]FGln cell uptake (UMRC3 cells; treatment with inhibitor): 20-50%

Molecule: CC1CCN(c2cc(N3CCN(CC[18F])CC3)ccc2NC(=O)c2cc(C#N)c[nH]2)CC1 [[18F]1]
- peak brain uptake in control mice (CSF1R; 5 min post-administration): 3.6 %ID/g tissue
- increase in brain uptake in LPS group (CSF1R; LPS-treated vs control mice): 46%

Molecule: Nc1ccncc1[18F] [[18F]3F4AP]
- VT in gray matter (K+ channels; 1T model): 1.52-1.69 mL.cm^-3
- VT in white matter (K+ channels; 1T model): 1.22-1.29 mL.cm^-3
- VT in MS lesions (K+ channels; 2T model, two lesions of one MS subject): 2.24 mL. cm^-3 and 2.26 mL. cm^-3
- whole-blood to plasma ratio (K+ channels; after 15 min): 0.88 ± 0.01
- radioactivity corresponding to parent compound (K+ channels; plasma, 90 min post injection, Radio-HPLC, average): 31%
- peak SUV in gray matter (K+ channels; ~3 min, control subjects): 5-7 SUV
- peak SUV in white matter (K+ channels; ~3 min, control subjects): 2-4 SUV

Molecule: COc1ccc2[nH]cc(C[C@H](N)C(=O)O)c2c1[18F] [[18F]-L-T13, 4-F-5-OMe-tryptophan]
- tumor uptake (IDO1): 9.57±0.26 %ID/g
- tumor/muscle uptake ratio (IDO1): 4.57±0.2

Molecule: NC(=O)[C@H]([18F])C[C@H](N)C(=O)O [[18F]FGln, (2S,4R)-4-[18F]fluoroglutamine]
- retention in lung tumors vs muscle (ccRCC lung tumors): 2 fold
- retention in lung tumors vs normal lung tissue (ccRCC lung tumors): 1.5 fold
- cell uptake in UMRC3 vs HEK293 cells (UMRC3 cells): 2 fold
- reduction of tracer cell uptake by excess glutamine (UMRC3 cells; excess glutamine in the media): 60-90%

Molecule: Nc1nc2c(ncn2CCC(CO)C[18F])c(=O)[nH]1 (stereo not drawn) [[18F]FHBG]
- signal in antigen-expressing tumors vs controls (HER2 and EGFRvIII): > 10 fold

Molecule: CC(=O)NCC1CN(c2ccc(N3CCSCC3)c([18F])c2)C(=O)O1 (stereo not drawn) [[18F]sutezolid]
- brain penetration in TB meningitis (mouse, in vivo): penetrated the brain parenchyma
- penetration in lung lesions vs unaffected lung (pulmonary TB, P< 0.05): significantly lower penetration in the lung lesions

Molecule: CN(C)C(=N)N=C(N)N [metformin]
- lowering of [89Zr]Zr-DFO-Trastuzumab tumor uptake by daily metformin (HER2; 200 mg/kg ip for 11 consecutive days): 3.7 fold
- %ID/g of 89Zr-labeled Trastuzumab, control vs acute metformin tumors (HER2; 24 h post-injection, metformin 250 mg/kg oral): ~ 1.6
- uptake of 89Zr-labeled Panitumumab, control vs metformin-treated tumors (EGFR): ~ 1.8

Molecule: CC(=O)Nc1cccc(-n2c(=O)n(C3CC3)c(=O)c3c(Nc4ccc(I)cc4F)n(C)c(=O)c(C)c32)c1 [trametinib]
- production of 13C-lactate from 13C-glucose [6]: significantly reduced
- tumor growth vs control group [6]: significantly delayed

Molecule: CCCS(=O)(=O)Nc1ccc(F)c(C(=O)c2c[nH]c3ncc(-c4ccc(Cl)cc4)cc23)c1F [vemurafenib]
- production of 13C-lactate from 13C-glucose [6]: significantly reduced
- tumor growth vs control group [6]: significantly delayed

Molecule: boronophenylalanine-fructose [BPA-Fr]
- boron content of the tumor [7]: around 42±13 ppm

B1: [89Zr]huOX40mAb: DFO-conjugated human OX40 mAb Ivuxolimab labeled with 89Zr (conjugate, chains of the INN, looked up)
VH: EVQLVESGGGLVQPGGSLRLSCAASGFTFSSYSMNWVRQAPGKGLEWVSYISSSSSTIDYADSVKGRFTISRDNAKNSLYLQMNSLRDEDTAVYYCARESGWYLFDYWGQGTLVTVSS
VL: DIQMTQSPSSLSASVGDRVTITCRASQGISSWLAWYQQKPEKAPKSLIYAASSLQSGVPSRFSGSGSGTDFTLTISSLQPEDFATYYCQQYNSYPPTFGGGTKVEIK
modifications: DFO; 89Zr
- binding to activated (OX40+) vs resting T cells (OX40 [8]): 10.8 fold
- reduction of binding to activated T cells by blocking (OX40 [8]; 25-fold excess cold mAb): 88%
- binding to OX40+ HEK293 vs parental HEK293 cells (OX40 [9]): 26.8 fold
- reduction of binding to OX40+ HEK293 cells by blocking (OX40 [9]; 25-fold excess cold mAb): 87%
- uptake in HEK293 tumors (OX40 [10]): 2.5 ± 0.7 %ID/g

B2: 89Zr-dinutuximab: anti-GD2 mAb dinutuximab radiolabeled via DFO (antibody, chains of the INN, looked up, V domains shown)
VH: EVQLLQSGPELEKPGASVMISCKASGSSFTGYNMNWVRQNIGKSLEWIGAIDPYYGGTSYNQKFKGRATLTVDKSSSTAYMHLKSLTSEDSAVYYCVSGMEYWGQGTSVTVSS
VL: EIVMTQSPATLSVSPGERATLSCRSSQSLVHRNGNTYLHWYLQKPGQSPKLLIHKVSNRFSGVPDRFSGSGSGTDFTLKISRVEAEDLGVYFCSQSTHVPPLTFGAGTKLELK
modifications: 89Zr-DFO
- tumor uptake (Disialoganglioside GD2; 4 hours, PET): 6.5 %ID/g
- tumor uptake (peak) (Disialoganglioside GD2; 71 hours, PET): 12 %ID/g
- blood uptake (Disialoganglioside GD2; 170 hours): < 2 %ID/g
- liver uptake (Disialoganglioside GD2; 170 hours): ~ 6 %ID/g
- normal tissues uptake except liver (Disialoganglioside GD2; 170 hours): < 5 %ID/g
- normal tissues uptake (Disialoganglioside GD2; initial): < 11 %ID/g

Reference: paper PMC9844952 (Molecular Imaging and Biology, 2023)
